Measurements published in patent US20220409620A1, “REDUCING IMMUNOGENICITY TO PEGLOTICASE” (Horizon Pharma Rheumatology LLC, priority 2016, published 2022).
Like-named read-outs stand apart in the source and are kept apart here.

Columns and labels:
[1] = tested on: adult patients with uncontrolled gout
Description: As used herein, an “adverse event” or “AE” refers to any untoward medical occurrence associated with the use of a drug in humans, whether it is considered drug-related or not. An AE or suspected adverse reaction is considered a “serious adverse event” or “SAE” if, in the view of either the Investigator or Sponsor, it results in any of the following outcomes: (1) Death, (2) Life-threatening: an AE is considered “life-threatening” if, in the view of either the Investigator or Sponsor, its occurrence places the subject or subject at immediate risk of death. […] (5) A congenital anomaly/birth defect; (6) Important medical events that may not result in death, be life-threatening, or require hospitalization may be considered serious when, based upon appropriate medical judgment, they may jeopardize the patient or subject and may require medical or surgical intervention to prevent one of the outcomes listed in this definition.
Safety Variables: Safety was assessed via AE and concomitant medication use monitoring, physical examinations, vital signs, clinical safety laboratory evaluations (hematology, chemistry, urine uric acid:creatinine ratio), pregnancy testing (if applicable), electrocardiograms (ECGs), and AEs of special interest (i.e., IRs, anaphylaxis, gout flares, and cardiovascular events).
AEs of special interest may include IRs, anaphylaxis, gout flares, and cardiovascular events.
Severity in accordance with the disclosure is reported according to the following: Grade 1 (Mild)—No interference with daily activity. Grade 2 (Moderate)—Some interference with daily activity but medical intervention not required (e.g., doctor visit and/or medication); over the counter medicine permitted. Grade 3 (Severe)—Prevents daily activity and requires medical intervention (e.g., doctor visit and/or medication). Grade 4 (Potentially Life-threatening)—Emergency room visit or hospitalization.
An AE was defined as any untoward event, whether or not it was considered related to the use of pegloticase or MTX. Any worsening (i.e., any clinically significant adverse change in frequency or intensity) of a preexisting condition which was temporally associated with the use of pegloticase or MTX was also considered an AE. Abnormal laboratory values or test results constitute AEs only if they induce clinical signs or symptoms or require therapy, and were recorded on the AE CRF under the signs, symptoms or were associated with diagnoses associated with them. Screening conditions were not considered AE; however, worsening of a preexisting condition may be considered an AE. AEs were collected starting at the baseline, Visit 1.
TEAEs during the Pegloticase+IMM Period were defined as events that occur after the start of the first pegloticase infusion through 30 days after the last dose of pegloticase and/or MTX or placebo for MTX (whichever was later). TEAEs that occur during the MTX Tolerability Assessment Period prior to randomization (Weeks −6 to −4) was summarized separately for the MTX population. […] AEs that occur more than 30 days after the last dose of pegloticase and/or MTX or placebo for MTX through the 6-month follow-up visit was also summarized.
The number and percentage of subjects experiencing AEs were summarized by system organ class and preferred term. Summaries by maximum severity and relationship to MTX and/or pegloticase was also provided. SAEs and AEs leading to discontinuation of MTX and/or pegloticase were presented by system organ class and preferred term.

[2] = Pegloticase serum concentrations (Cmax, Cmin), enzymatic/fluorescence assay, MIRROR OL; assay type: in vivo, human; conditions: with MTX Co-Treatment
Description: Pharmacokinetic and Anti-drug Antibody Measurements: Serum samples for PK analysis of pegloticase were collected prior to the pegloticase infusion and after the end of infusion (prior to discharge) on Day 1 and at the Weeks 2, 4, 6, 8 and 36 Visits or weeks 2, 6, 14, 24, 36, for the open-label and randomized studies, respectively, and prior to the pegloticase infusion only at the Weeks 10, 14, 18, 22, 24 (open-label study); at the End of Pegloticase Infusions Visit (if applicable); and the Week 52/End of Study/Early Termination Visits. Visits for frequent sampling of a subset of subjects who consent for additional non-infusion visit PK sampling occurred at Weeks 1 and 7 or at week 21 for the open-label and randomized studies, respectively.
An enzymatic/fluorescence assay was used to quantitate pegloticase concentrations in serum. In the assay, pegloticase catalyzes the conversion of UA to allantoin, thus releasing hydrogen peroxide (H2O2) and carbon dioxide. In the presence of horseradish peroxidase, H2O2 reacts with a 1:1 stoichiometry with Amplex Ultra Red (Molecular Probes, Inc., Eugene, Oreg.) to generate the red fluorescence oxidation product, resorufin. The concentration of resorufin, which is determined by fluorometry, is proportional to the amount of active pegloticase present in the serum samples. The lower limit of detection established in previous studies has been determined to be 0.6 μg/mL.
Methods: In the MIRROR OL trial, MTX (15 mg/week) was given orally 4 weeks prior to the first pegloticase dose and continued weekly, in combination with pegloticase 8 mg given intravenously every 2 weeks, for a treatment duration of up to 52 weeks. Pre-infusion samples were collected to measure MTX-PGs 1 to 5 in red blood cells at day 1, week 4, 8, 22, 24 and 36. […] Pegloticase concentrations in serum was measured using a validated enzymatic/fluorescence assay. The limit of quantification is 0.6 μg/mL. Anti-pegloticase/PEG IgG antibodies (ADA) were measured using a validated enzyme linked immunosorbent assay (ELISA). The analysis of MTX Polyglutamates was conducted by Exagen. The impact of MTX on pegloticase PK was evaluated by two methods: (1) Comparing pegloticase exposures (median Cmax and Cmin across visits) with MTX from the MIRROR OL trial to the observed levels in historical monotherapy Phase 3 studies (C0405 and C0406) (Lipsky et al., Arthritis Res Ther 16(2), 2014; Sundy et al., JAMA 306(7), 2011). Overlaying observed pegloticase concentrations with MTX against the 90% prediction band of pegloticase concentrations following monotherapy based on the population PK model from the Phase 3 data (Yue et al., ASCPT. Atlanta, 2010).

[3] = Stability of pegloticase diluted in infusion bags; assay type: physicochemical; conditions: at 2° C. to 8° C. and at room temperature (20° C. to 25° C.)
Method: Pegloticase diluted in infusion bags was stable for 4 hours at 2° C. to 8° C. (36° F. to 46° F.) and at room temperature (20° C. to 25° C., 68° F. to 77° F.); however, the diluted solution was stored under refrigeration, not frozen, protected from light, and used within 4 hours of dilution. Before administration, the diluted solution of pegloticase was allowed to reach room temperature. Pegloticase in a vial or IV infusion fluid was never subjected to artificial heating.

[4] = Methotrexate Run-in Period, ITT (N = 15)
[5] = Methotrexate Run-in Period, mITT (N = 14)

Molecule: CN(Cc1cnc2nc(N)nc(N)c2n1)c1ccc(C(=O)N[C@@H](CCC(=O)O)C(=O)O)cc1 [MTX, methotrexate]
- Infections And Infestations, % [1]: (13.3) %
- Abdominal Discomfort, % [1, 4]: (13.3) %
- Abdominal Discomfort, Incidence Rate [1, 4]: 1.8 Events/PY of MTX
- Any TEAEs, % [1, 4]: (66.7) %
- Any TEAEs, Incidence Rate [1, 4]: 18.2 Events/PY of MTX
- Blood And Lymphatic System Disorders, % [1, 4]: (6.7) %
- Blood And Lymphatic System Disorders, Incidence Rate [1, 4]: 1.8 Events/PY of MTX
- Chronic Sinusitis, % [1, 4]: (6.7) %
- Chronic Sinusitis, Incidence Rate [1, 4]: 0.9 Events/PY of MTX
- Cough, % [1, 4]: (6.7) %
- Cough, Incidence Rate [1, 4]: 0.9 Events/PY of MTX
- Dental Caries, % [1, 4]: (6.7) %
- Dental Caries, Incidence Rate [1, 4]: 0.9 Events/PY of MTX
- Diarrhoea, % [1, 4]: (6.7) %
- Diarrhoea, Incidence Rate [1, 4]: 0.9 Events/PY of MTX
- Dry Eye, % [1, 4]: (6.7) %
- Dry Eye, Incidence Rate [1, 4]: 0.9 Events/PY of MTX
- Eye Disorders, % [1, 4]: (6.7) %
- Eye Disorders, Incidence Rate [1, 4]: 0.9 Events/PY of MTX
- Gastrointestinal Disorders, % [1, 4]: (33.3) %
- Gastrointestinal Disorders, Incidence Rate [1, 4]: 5.5 Events/PY of MTX
- Gout, % [1, 4]: (33.3) %
- Gout, Incidence Rate [1, 4]: 5.5 Events/PY of MTX
- Headache, % [1, 4]: (6.7) %
- Headache, Incidence Rate [1, 4]: 0.9 Events/PY of MTX
- Leukopenia, % [1, 4]: (6.7) %
- Leukopenia, Incidence Rate [1, 4]: 0.9 Events/PY of MTX
- Metabolism And Nutrition Disorders, % [1, 4]: (33.3) %
- Metabolism And Nutrition Disorders, Incidence Rate [1, 4]: 5.5 Events/PY of MTX
- Nasopharyngitis, % [1, 4]: (6.7) %
- Nasopharyngitis, Incidence Rate [1, 4]: 0.9 Events/PY of MTX
- Nausea, % [1, 4]: (13.3) %
- Nausea, Incidence Rate [1, 4]: 1.8 Events/PY of MTX
- Nervous System Disorders, % [1, 4]: (6.7) %
- Nervous System Disorders, Incidence Rate [1, 4]: 0.9 Events/PY of MTX
- Neutropenia, % [1, 4]: (6.7) %
- Neutropenia, Incidence Rate [1, 4]: 0.9 Events/PY of MTX
- Pruritus, % [1, 4]: (6.7) %
- Pruritus, Incidence Rate [1, 4]: 0.9 Events/PY of MTX
- Respiratory, Thoracic And Mediastinal Disorders, % [1, 4]: (6.7) %
- Respiratory, Thoracic And Mediastinal Disorders, Incidence Rate [1, 4]: 0.9 Events/PY of MTX
- Skin And Subcutaneous Tissue Disorders, % [1, 4]: (6.7) %
- Skin And Subcutaneous Tissue Disorders, Incidence Rate [1, 4]: 0.9 Events/PY of MTX
- Abdominal Discomfort, % [1, 5]: (14.3) %
- Abdominal Discomfort, Incidence Rate [1, 5]: 2.0 Events/PY of MTX
- Any TEAEs, % [1, 5]: (71.4) %
- Any TEAEs, Incidence Rate [1, 5]: 20.0 Events/PY of MTX
- Blood And Lymphatic System Disorders, % [1, 5]: (7.1) %
- Blood And Lymphatic System Disorders, Incidence Rate [1, 5]: 2.0 Events/PY of MTX
- Chronic Sinusitis, % [1, 5]: (7.1) %
- Chronic Sinusitis, Incidence Rate [1, 5]: 1.0 Events/PY of MTX
- Cough, % [1, 5]: (7.1) %
- Cough, Incidence Rate [1, 5]: 1.0 Events/PY of MTX
- Dental Caries, % [1, 5]: (7.1) %
- Dental Caries, Incidence Rate [1, 5]: 1.0 Events/PY of MTX
- Diarrhoea, % [1, 5]: (7.1) %
- Diarrhoea, Incidence Rate [1, 5]: 1.0 Events/PY of MTX
- Dry Eye, % [1, 5]: (7.1) %
- Dry Eye, Incidence Rate [1, 5]: 1.0 Events/PY of MTX
- Eye Disorders, % [1, 5]: (7.1) %
- Eye Disorders, Incidence Rate [1, 5]: 1.0 Events/PY of MTX
- Gastrointestinal Disorders, % [1, 5]: (35.7) %
- Gastrointestinal Disorders, Incidence Rate [1, 5]: 6.0 Events/PY of MTX
- Gout, % [1, 5]: (35.7) %
- Gout, Incidence Rate [1, 5]: 6.0 Events/PY of MTX
- Headache, % [1, 5]: (7.1) %
- Headache, Incidence Rate [1, 5]: 1.0 Events/PY of MTX
- Infections And Infestations, % [1, 5]: (14.3) %
- Infections And Infestations, Incidence Rate [1, 5]: 2.0 Events/PY of MTX
- Infections And Infestations, Total Events [1, 5]: 2
- Leukopenia, % [1, 5]: (7.1) %
- Leukopenia, Incidence Rate [1, 5]: 1.0 Events/PY of MTX
- Metabolism And Nutrition Disorders, % [1, 5]: (35.7) %
- Metabolism And Nutrition Disorders, Incidence Rate [1, 5]: 6.0 Events/PY of MTX
- Nasopharyngitis, % [1, 5]: (7.1) %
- Nasopharyngitis, Incidence Rate [1, 5]: 1.0 Events/PY of MTX
- Nausea, % [1, 5]: (14.3) %
- Nausea, Incidence Rate [1, 5]: 2.0 Events/PY of MTX
- Nervous System Disorders, % [1, 5]: (7.1) %
- Nervous System Disorders, Incidence Rate [1, 5]: 1.0 Events/PY of MTX
- Neutropenia, % [1, 5]: (7.1) %
- Neutropenia, Incidence Rate [1, 5]: 1.0 Events/PY of MTX
- Pruritus, % [1, 5]: (7.1) %
- Pruritus, Incidence Rate [1, 5]: 1.0 Events/PY of MTX
- Respiratory, Thoracic And Mediastinal Disorders, % [1, 5]: (7.1) %
- Respiratory, Thoracic And Mediastinal Disorders, Incidence Rate [1, 5]: 1.0 Events/PY of MTX
- Skin And Subcutaneous Tissue Disorders, % [1, 5]: (7.1) %
- Skin And Subcutaneous Tissue Disorders, Incidence Rate [1, 5]: 1.0 Events/PY of MTX
- Infections And Infestations, Incidence Rate ([1]; human, in vivo, 4 weeks): 1.8 Events/PY of MTX
- Infections And Infestations, Total Events ([1]; human, in vivo, 4 weeks): 2
- tolerability of MTX ([1]; oral 15 mg/week, all patients): tolerated

Molecule: pegloticase
- Cmax BQL, % ([2]; Quantitation Limit 0.6 μg/mL): 0%
- Cmax BQL, n/N ([2]; Quantitation Limit 0.6 μg/mL): 0/14
- Cmin BQL, % ([2]; Quantitation Limit 0.6 μg/mL): 36%
- Cmin BQL, n/N ([2]; Quantitation Limit 0.6 μg/mL): 5/14
- Cmax, Median (Q1, Q3) ([2]; serum, BQL: below 0.6 μg/mL): 2.11 (1.65, 2.59) μg/mL
- Cmin, Median (Q1, Q3) ([2]; serum, BQL: below 0.6 μg/mL): 1.03 (BQL, 1.23) μg/mL
- stability of pegloticase diluted in infusion bags [3]: 4 h
